Values after ≈ are worked out from the molar mass of the structure shown. Each block holds one molecule with its values, some of them ahead of it.
Key:
in vitro = settings: PAMPA
Procedure: (§1) The assay was conducted as reported previously [15]. The samples were analyzed as described below in mouse plasma stability assay.

[1] = Metabolic stability in mouse liver S9 fractions; type: in vitro ADME; settings: presence of the cofactor mixture (NADPH, UDPGA, PAPS, GSH), 37 °C, 60 min
Procedure: Working solutions of the test compounds (baicalein, 7-EC, and compounds 1–7) prepared in 50 vol% aqueous MeOH at 120 μM were added in triplicate to a 200 mM tris buffer (pH 7.4) containing mouse liver S9 fractions (1 mg protein/mL), alamethicin (25 μg/mL) and MgCl2 (2 mM). The final concentration of test compound was 3 μM. This mixture was pre-incubated at 37 °C in a shaking water bath for 5 min followed by addition of a cofactor mixture to following final concentrations: 1 mM NADPH, 0.5 mM UDPGA, 0.1 mM PAPS and 2.5 mM GSH. A 50 μL aliquot was taken at 0, 15, 30 and 60 min from each incubation mixture. These samples were then treated in the same way as described above in Mouse plasma stability assay. The supernatant was analyzed by Agilent 6530 Q−TOF LC−MS/MS system in a positive auto MS/MS scan mode. The liquid chromatography was conducted in the same condition as described above in mouse plasma stability assay. The analytical data were analyzed using Agilent MassHunter Quantitative Analysis Software (version B.05.00). MS chromatograms were extracted using calculated exact masses ([M+H]^+) for the analytes. Peak area ratios of the analytes vs. IS on the extracted MS chromatograms were used to calculate % remaining values at each time points.

[2] = logD7.4 by shake-flask method; type: physicochemical; settings: 0.1 M phosphate buffer (pH 7.4), duplicate
Procedure: The assay was conducted as reported previously. Briefly, 100 µM test solutions were prepared by diluting 10 mM stock solutions of the test compounds (baicalein and compounds 1–7) in 0.1 M potassium phosphate buffer (pH 7.4) saturated with 1-octanol. Standard solutions were prepared by diluting each test solution with the same volume of DMSO in HPLC vials. Partition solutions were prepared by mixing each test solution and 1-octanol saturated with 0.1 M potassium phosphate buffer (pH 7.4) at three different volume ratios, namely 1:0.02, 1:0.2 and 1:2, in HPLC vials. The partition solutions were then vortexed for 1 h at 1500 rpm at rt. The standard solutions and the aqueous phase (bottom layer) of each partition solution were analyzed directly from the HPLC vials as described above in Chemical stability assay. The logD7.4 values were calculated by the following equation: logD7.4=log(2×As/Ap−1)·Vt/Vo where As and Ap are, respectively, the peak areas of the standard and the aqueous phase of the partition solutions and Vt and Vo the volumes of test solution and 1-octanol of the partition solutions.

[3] = Chemical stability in physiologically-relevant solutions; type: physicochemical; settings: 37 °C; for remaining at 4 h, 10 μM: at 4 h vs time 0
Procedure: Stock solutions of the test compounds (baicalein, compounds 1–7) prepared in MeOH at 10 mM were diluted in 0.1 N HCl and 0.1 M potassium phosphate buffer (pH 6.5 and 7.4) in triplicate to a final concentration of 10 μM. The mixtures were then incubated at 37 °C in a shaking water bath. Samples taken at 0, 1, 2, 3 and 4 h were analyzed by Thermo UltiMate 3000 series HPLC system. Chromatographic separation was performed on an Agilent Eclipse Plus C18 column (100 × 4.6 mm, 3.5 µm) kept at 40 °C with isocratic elution at a flow rate of 0.6 mL/min using a mixture of 0.1 vol% TFA in deionized water and acetonitrile as the mobile phase. The detection wavelengths were 277 and 270 nm for baicalein and compounds 1–7, respectively. Peak areas of the analytes on the UV chromatograms were used to calculate % remaining values at each time points.
The stability of baicalein and of the synthesized carbamate prodrugs (1–7) was determined in solutions mimicking gastric (0.1 N HCl, pH ~ 1), intestinal (pH 6.5 phosphate buffer), and physiological (pH 7.4 phosphate buffer) conditions. […]. […] […]. The degradation of the carbamate prodrugs was accompanied by the formation of baicalein under all conditions in this study (data not shown). Although the exact reason for this pH-dependent stability remains unknown, it is plausible that the side chains of amino acids somehow affect the hydrolysis of the carbamate bond of the prodrugs.

[4] = Kinetic solubility in phosphate buffer (pH 7.4); type: physicochemical; settings: aqueous buffer, kinetic from dmso stock; shake-flask, 0.1 M phosphate buffer (pH 7.4), triplicate
Procedure: Stock solutions of the test compounds (baicalein and compounds 1–7) prepared at 10 mM in DMSO were diluted with 0.1 M potassium phosphate buffer (pH 7.4) in Mini-UniPrep filter vial (PTFE membrane, 0.45 μm) to a final concentration of 500 µM. The mixture was then shaken at 800 rpm for 90 min at rt and filtered by slowly pressing the upper tube of the Mini-Uniprep vial. The filtrate (300 µL) was then transferred to an HPLC vial containing same volume of acetonitrile. Sample analysis was conducted as described above in Chemical stability assay.

[5] = PAMPA (parallel artificial membrane permeability assay)
Procedure: as §1

Mouse pharmacokinetics = type: in vivo, male ICR mice; settings: mice
Procedure: Pharmacokinetic studies were conducted with male ICR mice (8 weeks old; 30–35 g body wt.) purchased from Koatech Company (Pyeongtaek, Korea), as reported previously. Intravenous dosing solutions were prepared in EtOH/20% aqueous HPβCD (10/90 vol%) at 2 and 3 mg/mL for baicalein and compound 2, respectively. Oral dosing solutions were prepared in EtOH/tween 80/20% aqueous HPβCD (10/10/80 vol%) at 1 and 1.5 mg/mL for baicalein and compound 2, respectively. Plasma sample analysis was performed as described above in mouse plasma stability assay.

[6] = pH 6.5 buffer (0.1 M potassium phosphate)
[7] = pH 7.4 buffer (0.1 M potassium phosphate)
[8] = male, ICR, mouse, in vivo, iv, plasma analyte after single i.v. dose of compound 2 15 mg/kg
[9] = male, ICR, mouse, in vivo, po, plasma analyte after single p.o. dose of compound 2 50 mg/kg
[10] = male, ICR, mouse, iv, plasma analyte after single i.v. dose of baicalein 10 mg/kg
[11] = male, ICR, mouse, iv, plasma analyte after single i.v. dose of compound 2 15 mg/kg
[12] = male, ICR, mouse, po, plasma analyte after single p.o. dose of baicalein 10 mg/kg
[13] = male, ICR, mouse, po, plasma analyte after single p.o. dose of compound 2 50 mg/kg

- Papp (in vitro): > 1 ×10⁻⁶ cm/s
SMILES: COCCc1ccc(OCC(O)CNC(C)C)cc1 (stereo not shown) [metoprolol]

- metabolism in mouse liver S9 fractions [1]: rapid metabolism
SMILES: CCOc1ccc2ccc(=O)oc2c1 [7-Ethoxycoumarin]

SMILES: CC(C)[C@H](NC(=O)Oc1cc2oc(-c3ccccc3)cc(=O)c2c(O)c1O)C(=O)O [Compound 2, (S)-2-((((5,6-Dihydroxy-4-oxo-2-phenyl-4H-chromen-7-yl)oxy)carbonyl)amino)-3-methylbutanoic acid]
- logD [2]: 0.04
- half-life at 10 μM ([3]; buffer, pH 1, 0.1 N HCl, 10 μM): > 4 h
- remaining at 4 h, 10 μM ([3]; buffer, pH 1, 0.1 N HCl): 105 ± 3.5%
- half-life at 10 μM [3, 6]: > 4 h
- remaining at 4 h, 10 μM ([3]; pH 6.5 buffer): 92.8 ± 4.2%
- half-life at 10 μM [3, 7]: > 4 h
- remaining at 4 h, 10 μM ([3]; pH 7.4 buffer): 74.4 ± 6.6%
- solubility kinetic at 90 min [4]: 479.2 ± 4.4 µM (≈ 198 µg/mL)
- Papp [5]: 0.04 ± 0.02 ×10⁻⁶ cm/s
- AUC(0-inf) (Mouse pharmacokinetics; [8]): 88700 ± 43200 ng·h/mL
- AUC(0-t) (Mouse pharmacokinetics; [8]): 88600 ± 43200 ng·h/mL
- Cmax (Mouse pharmacokinetics; [8]): 65100 ± 4290 ng/mL
- Tmax (Mouse pharmacokinetics; [8]): 0.1 h
- half-life (Mouse pharmacokinetics; [8]): 1.9 ± 0.6 h
- clearance (Mouse pharmacokinetics; male, ICR, mouse, in vivo, iv, single i.v. dose of compound 2 15 mg/kg): 3.33 mL/min/kg
- Vd (Mouse pharmacokinetics; male, ICR, mouse, in vivo, iv, single i.v. dose of compound 2 15 mg/kg, read-out: VSS): 0.4 ± 0.1 L/kg
- AUC(0-inf) (Mouse pharmacokinetics; [9]): 5820 ± 1710 ng·h/mL
- AUC(0-t) (Mouse pharmacokinetics; [9]): 5430 ± 1730 ng·h/mL
- Cmax (Mouse pharmacokinetics; [9]): 2930 ± 590 ng/mL
- Tmax (Mouse pharmacokinetics; [9]): 0.3 ± 0.09 h
- half-life (Mouse pharmacokinetics; [9]): 1.7 ± 0.5 h
- bioavailability (Mouse pharmacokinetics; male, ICR, mouse, in vivo, oral bioavailability of compound 2, p.o. 50 mg/kg vs i.v. 15 mg/kg): 2 ± 0.6%

SMILES: C[C@H](NC(=O)Oc1cc2oc(-c3ccccc3)cc(=O)c2c(O)c1O)C(=O)O [Compound 6, (S)-2-((((5,6-Dihydroxy-4-oxo-2-phenyl-4H-chromen-7-yl)oxy)carbonyl)amino)propanoic acid]
- logD [2]: -0.18
- half-life at 10 μM ([3]; buffer, pH 1, 0.1 N HCl, 10 μM): > 4 h
- remaining at 4 h, 10 μM ([3]; buffer, pH 1, 0.1 N HCl): 90.2 ± 4.1%
- half-life at 10 μM [3, 6]: > 4 h
- remaining at 4 h, 10 μM ([3]; pH 6.5 buffer): 81.8 ± 1.3%
- half-life at 10 μM [3, 7]: > 4 h
- remaining at 4 h, 10 μM ([3]; pH 7.4 buffer): 76.6 ± 1.7%
- solubility kinetic at 90 min [4]: 400 ± 14.7 µM (≈ 154 µg/mL)
- Papp [5]: < 0.01 ×10⁻⁶ cm/s

SMILES: C[C@@H](O)[C@H](NC(=O)Oc1cc2oc(-c3ccccc3)cc(=O)c2c(O)c1O)C(=O)O [Compound 4, (2S,3R)-2-((((5,6-Dihydroxy-4-oxo-2-phenyl-4H-chromen-7-yl)oxy)carbonyl)amino)-3-hydroxybutanoic acid]
- logD [2]: -0.05
- half-life at 10 μM ([3]; buffer, pH 1, 0.1 N HCl, 10 μM): > 4 h
- remaining at 4 h, 10 μM ([3]; buffer, pH 1, 0.1 N HCl): 109 ± 3.4%
- half-life at 10 μM [3, 6]: 2.8 ± 0.1 h
- remaining at 4 h, 10 μM ([3]; pH 6.5 buffer): 37.3 ± 0.2%
- half-life at 10 μM [3, 7]: 1.7 ± 0.1 h
- remaining at 4 h, 10 μM ([3]; pH 7.4 buffer): 20 ± 1%
- solubility kinetic at 90 min [4]: 347 ± 11.4 µM (≈ 144 µg/mL)

SMILES: O=C(O)[C@H]1O[C@@H](Oc2cc3oc(-c4ccccc4)cc(=O)c3c(O)c2O)[C@H](O)[C@@H](O)[C@@H]1O [Baicalin]
- time plasma analyte was above the quantitation limit (Mouse pharmacokinetics; after single i.v. dose of 10 mg/kg baicalein): 24 h
- time plasma analyte was above the quantitation limit (Mouse pharmacokinetics; after single p.o. dose of 10 mg/kg baicalein, 24 h time course): 24 h
- AUC(0-inf) (Mouse pharmacokinetics; [10]): 2600 ± 510 ng·h/mL
- AUC(0-t) (Mouse pharmacokinetics; [10]): 2450 ± 490 ng·h/mL
- Cmax (Mouse pharmacokinetics; [10]): 4590 ± 870 ng/mL
- Tmax (Mouse pharmacokinetics; [10]): 0.1 h
- half-life (Mouse pharmacokinetics; [10]): 6.2 ± 2.8 h
- AUC(0-inf) (Mouse pharmacokinetics; [11]): 500 ± 170 ng·h/mL
- AUC(0-t) (Mouse pharmacokinetics; [11]): 200 ± 88 ng·h/mL
- Cmax (Mouse pharmacokinetics; [11]): 90 ± 10 ng/mL
- Tmax (Mouse pharmacokinetics; [11]): 0.1 h
- half-life (Mouse pharmacokinetics; [11]): 6.6 ± 1.6 h
- AUC(0-inf) (Mouse pharmacokinetics; [12]): 4890 ± 1400 ng·h/mL
- AUC(0-t) (Mouse pharmacokinetics; [12]): 4420 ± 1440 ng·h/mL
- Cmax (Mouse pharmacokinetics; [12]): 2260 ± 670 ng/mL
- Tmax (Mouse pharmacokinetics; [12]): 0.2 h
- half-life (Mouse pharmacokinetics; [12]): 6.3 ± 3 h
- AUC(0-t) (Mouse pharmacokinetics; [13]): 680 ± 210 ng·h/mL
- Cmax (Mouse pharmacokinetics; [13]): 130 ± 40 ng/mL
- Tmax (Mouse pharmacokinetics; [13]): 6 ± 2.8 h

SMILES: O=C(N[C@@H](Cc1ccccc1)C(=O)O)Oc1cc2oc(-c3ccccc3)cc(=O)c2c(O)c1O [Compound 5, (S)-2-((((5,6-Dihydroxy-4-oxo-2-phenyl-4H-chromen-7-yl)oxy)carbonyl)amino)-3-phenylpropanoic acid]
- logD [2]: 0.43
- half-life at 10 μM ([3]; buffer, pH 1, 0.1 N HCl, 10 μM): 2.2 ± 0.4 h
- remaining at 4 h, 10 μM ([3]; buffer, pH 1, 0.1 N HCl): 27.4 ± 5.1%
- half-life at 10 μM [3, 6]: > 4 h
- remaining at 4 h, 10 μM ([3]; pH 6.5 buffer): 78.5 ± 1.5%
- half-life at 10 μM [3, 7]: > 4 h
- remaining at 4 h, 10 μM ([3]; pH 7.4 buffer): 70.2 ± 2.5%
- solubility kinetic at 90 min [4]: 375 ± 21.4 µM (≈ 173 µg/mL)
- metabolism in mouse liver S9 fractions [1]: metabolized much faster than the other prodrugs
